Test [1] deals with T1, A II receptor (Oryctolagus cuniculus, UniProt P34976).
T1 construct: A II-induced contraction in the rabbit aorta; from tissue; host or cells: rabbit aorta
T1 sequence (P34976 1-359): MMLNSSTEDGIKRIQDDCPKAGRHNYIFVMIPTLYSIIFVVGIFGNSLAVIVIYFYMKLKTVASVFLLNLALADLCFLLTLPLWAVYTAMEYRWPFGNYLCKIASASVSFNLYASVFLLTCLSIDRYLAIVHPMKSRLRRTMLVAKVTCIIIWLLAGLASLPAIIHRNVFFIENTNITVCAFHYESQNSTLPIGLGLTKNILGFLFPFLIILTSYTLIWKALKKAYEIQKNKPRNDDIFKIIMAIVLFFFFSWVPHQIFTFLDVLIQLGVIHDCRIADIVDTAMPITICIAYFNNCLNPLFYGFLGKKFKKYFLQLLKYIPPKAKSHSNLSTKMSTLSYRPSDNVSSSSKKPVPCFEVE
The experiment in a line: inhibition of the A II-induced contraction in the rabbit aorta. To be noted: in vitro, read-out: pA2 (converted). The class given is cell-based. The text has this: (§1) The compounds described in the present invention act as antagonists at the A II receptor level.
(§2) For the characterization and the evaluation of the effectiveness of the compounds of the invention, in vitro tests (such as the inhibition of the A II-induced contraction in the rabbit aorta and the displacement of ^125 I-Sar^1 -Ile^8 -AT II or [^3 H] AT II in the rat adrenal cortex) and an in vivo test (the inhibition of the A II-induced pressory response in the ganglio-blocked normotensive rat) were selected.

The target of test [2] is A II receptor. Description: receptor binding test: displacement of 125I-Sar1-Ile8-AT II or [3H] AT II in the rat adrenal cortex.
Text: as §1, §2

The record followed here is patent US5538987A, “Imidazole ethers having a II antagonist activity” (Istituto Luso Farmaco D'Italia S.p.A., priority 1992, dated 1996).

Structures are written as SMILES.

Regarding `CCCCc1nc(Cl)c(COCc2occc2C(=O)O)n1Cc1ccc(-c2ccccc2-c2nnn[nH]2)cc1` [2-butyl-5-[(3-carboxyfuran-2-yl)methoxymethyl]-4-chloro-1-[[2'-(1H-tetrazol-5-yl)-1,1'-biphenyl-4-yl]methyl]-1H-imidazole], the Kb in test [1] is 1.26 nM. Further, the Ki (in general, the equilibrium dissociation constant of an inhibitor or competing ligand from its target) in test [2] came to 3.2 nM.

In the case of `CCCCc1nc(Cl)c(COCc2ccccc2C(=O)O)n1Cc1ccc(-c2ccccc2-c2nnn[nH]2)cc1` [ex. 18, 2-butyl-5-[(2-carboxyphenyl)methoxymethyl]-4-chloro-1-[[2'-(1H-tetrazol-5-yl)-1,1'-biphenyl-4-yl]methyl]-1H-imidazole], the Kb in test [1] is 0.2 nM. The same compound had a Ki in test [2] of 4.4 nM.
